According to ChEMBL document CHEMBL5500364, “Design, synthesis, and biological evaluation of some 2-(3-oxo-5,6-diphenyl-1,2,4-triazin-2(3H)-yl)-N-phenylacetamide hybrids as MTDLs for Alzheimer's disease therapy” (Eur J Med Chem, 2024):
Calls of active or inactive are those of the source. The calls are words filed in the database; no cut-off is given here.

Tests used:
Acetylcholinesterase [1] = biological target: T1, Acetylcholinesterase (Homo sapiens, UniProt P22303); experiment: Inhibition of human erythrocyte AChE using acetylthiocholine iodide as substrate preincubated for 30 mins followed by substrate addition by DTNB based Ellman's colorimetric method
T1 sequence (P22303 whole entry): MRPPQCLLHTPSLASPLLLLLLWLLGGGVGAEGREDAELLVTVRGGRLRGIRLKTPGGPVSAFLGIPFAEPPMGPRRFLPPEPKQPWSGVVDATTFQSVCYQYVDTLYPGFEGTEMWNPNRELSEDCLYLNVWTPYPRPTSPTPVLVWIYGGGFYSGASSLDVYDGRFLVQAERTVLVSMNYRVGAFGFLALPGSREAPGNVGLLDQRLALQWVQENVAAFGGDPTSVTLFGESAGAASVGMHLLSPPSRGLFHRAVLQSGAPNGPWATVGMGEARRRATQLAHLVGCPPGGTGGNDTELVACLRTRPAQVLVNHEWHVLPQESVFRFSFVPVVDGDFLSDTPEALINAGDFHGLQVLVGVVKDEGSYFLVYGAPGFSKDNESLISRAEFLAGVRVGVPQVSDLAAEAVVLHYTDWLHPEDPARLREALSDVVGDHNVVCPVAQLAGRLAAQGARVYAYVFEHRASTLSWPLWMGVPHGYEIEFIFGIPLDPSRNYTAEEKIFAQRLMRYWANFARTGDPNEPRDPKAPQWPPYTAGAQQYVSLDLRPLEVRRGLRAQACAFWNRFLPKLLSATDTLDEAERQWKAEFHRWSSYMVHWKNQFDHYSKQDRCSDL

Acetylcholinesterase [2] = biological target: T1, Acetylcholinesterase; experiment: Mixed type non-competitive inhibition of human erythrocyte AChE using acetylthiocholine iodide as substrate assessed as decrease in Vmax with increase in Km at 0.25 to 0.75 uM by Lineweaver-burk plot analysis; settings: dose 0.25-0.75 µM
[3] = biological target: Dual specificity tyrosine-phosphorylation-regulated kinase 1A (Homo sapiens, UniProt Q13627); experiment: Inhibition of Dyrk1A (unknown origin) incubated for 1 hrs in presence of [gamma-33P]-ATP by microplate scintillation counter based radiometric protein kinase assay
Beta-secretase 1 = Beta-secretase 1 (Homo sapiens, UniProt P56817); experiment: Inhibition of human BACE-1 using (7-Methoxycoumarin-4-acetyl-[Asn670, Leu671]-Amyloid beta/A4 precursor protein 770 fragments 667-676- (2, 4-dinitrophenyl) Lys-Arg-Arg amide trifluoroacetate salt as substrate incubated for 2 hrs by FRET-based analysis
Sequence of Beta-secretase 1 (P56817 whole entry, the tested form may be a part): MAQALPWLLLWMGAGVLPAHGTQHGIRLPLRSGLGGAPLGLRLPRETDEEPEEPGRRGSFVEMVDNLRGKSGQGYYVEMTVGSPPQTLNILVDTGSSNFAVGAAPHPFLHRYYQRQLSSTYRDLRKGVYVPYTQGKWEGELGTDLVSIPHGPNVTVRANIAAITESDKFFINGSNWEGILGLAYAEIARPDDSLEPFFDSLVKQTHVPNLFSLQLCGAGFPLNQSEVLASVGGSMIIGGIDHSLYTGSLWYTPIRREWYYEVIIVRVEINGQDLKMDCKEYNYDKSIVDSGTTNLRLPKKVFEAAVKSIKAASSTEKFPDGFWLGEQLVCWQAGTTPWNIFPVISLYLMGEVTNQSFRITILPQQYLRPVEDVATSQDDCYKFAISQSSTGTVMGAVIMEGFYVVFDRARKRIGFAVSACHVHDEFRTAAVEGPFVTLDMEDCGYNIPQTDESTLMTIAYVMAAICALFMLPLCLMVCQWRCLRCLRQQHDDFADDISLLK

[4] = biological target: Amyloid-beta precursor protein (Homo sapiens) (UniProt P05067); experiment: Inhibition of amyloid beta (1 to 42) (unknown origin) aggregation assessed as maximum peak height of aggregates incubated for 48 hrs by AFM analysis
Sequence of Amyloid-beta precursor protein (Homo sapiens) (P05067 whole entry): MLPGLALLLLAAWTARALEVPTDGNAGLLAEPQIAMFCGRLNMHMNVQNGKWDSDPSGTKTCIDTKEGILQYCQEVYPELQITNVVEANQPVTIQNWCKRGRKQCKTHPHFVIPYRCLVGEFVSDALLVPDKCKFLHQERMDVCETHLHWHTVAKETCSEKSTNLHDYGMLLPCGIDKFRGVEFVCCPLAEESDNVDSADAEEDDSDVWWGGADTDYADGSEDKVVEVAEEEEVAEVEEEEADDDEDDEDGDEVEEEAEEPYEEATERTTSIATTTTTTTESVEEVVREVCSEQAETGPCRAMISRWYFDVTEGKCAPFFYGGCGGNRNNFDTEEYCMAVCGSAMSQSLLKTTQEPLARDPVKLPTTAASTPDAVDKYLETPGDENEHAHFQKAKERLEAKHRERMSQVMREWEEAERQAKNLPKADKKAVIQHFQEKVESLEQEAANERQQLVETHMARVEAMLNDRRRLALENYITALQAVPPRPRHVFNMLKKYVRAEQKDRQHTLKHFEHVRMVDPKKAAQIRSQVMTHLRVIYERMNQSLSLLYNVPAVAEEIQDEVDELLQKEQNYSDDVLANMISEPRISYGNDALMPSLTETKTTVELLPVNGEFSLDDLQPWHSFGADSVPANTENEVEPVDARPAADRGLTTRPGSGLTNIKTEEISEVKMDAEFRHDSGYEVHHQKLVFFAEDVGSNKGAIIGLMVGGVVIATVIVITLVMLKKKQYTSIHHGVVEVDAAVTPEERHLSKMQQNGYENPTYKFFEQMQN

[5] = biological target: Amyloid-beta precursor protein (Homo sapiens) (UniProt P05067); experiment: Inhibition of amyloid beta (1 to 42) (unknown origin) aggregation assessed as reduction in amyloid-beta aggregates at 50 uM incubated for 48 hrs by TEM analysis
[6] = biological target: Amyloid-beta precursor protein (Homo sapiens) (UniProt P05067); experiment: Inhibition of amyloid beta (1 to 42) (unknown origin) aggregation assessed as reduction in size of amyloid-beta aggregates measured within 48 hrs by SEM imaging analysis
[7] = Acute toxicity in Wistar rat assessed as toxicity signs at 500 to 1000 mg/kg, po administered for 14 days; assay type: organism-based; settings: in vivo, 336 h, dose 500-1000 mg/kg, time 14 day
[8] = Acute toxicity in Wistar rat assessed as toxicity symptoms at 500 to 1000 mg/kg, po administered for 14 days; assay type: organism-based; settings: in vivo, 336 h, dose 500-1000 mg/kg, time 14 day
[9] = Acute toxicity in Wistar rat assessed as effect on DCT shape at 500 to 1000 mg/kg, po administered for 14 days by histopathological analysis; assay type: organism-based; settings: in vivo, 336 h, dose 500-1000 mg/kg, time 14 day
[10] = Acute toxicity in Wistar rat assessed as effect on central vein appearance in liver at 500 to 1000 mg/kg, po administered for 14 days by histopathological analysis; assay type: organism-based; settings: in vivo, 336 h, dose 500-1000 mg/kg, time 14 day
[11] = Acute toxicity in Wistar rat assessed as effect on kupffer cells appearance in liver at 500 to 1000 mg/kg, po administered for 14 days by histopathological analysis; assay type: organism-based; settings: in vivo, 336 h, dose 500-1000 mg/kg, time 14 day
Rattus norvegicus [12] = experiment: Reduction in AChE level in scopolamine-induced male Wistar rat brain hippocampus preadministered with compound orally for 30 mins starting from 7 th day trail followed by scopolamine administration and measured after 5 mins by Ellman's method; assay type: functional, tissue-based; settings: dose 2.5-10 mg/kg, route po, time 35.0 min
Hippocampus [13] = experiment: Reversal of scopolamine-induced oxidative stress in male Wistar rat brain hippocampus assessed as decrease in MDA level at 2.5 to 10 mg/kg, po preadministered with compound for 30 mins starting from 7 th day trail followed by scopolamine administration and measured after 5 mins by TBARS assay; assay type: functional, organism-based; settings: dose 2.5-10 mg/kg, time 35.0 min
Hippocampus [14] = experiment: Reversal of scopolamine-induced oxidative stress in male Wistar rat brain hippocampus assessed as increase in catalase level preadministered orally with compound for 30 mins starting from 7 th day trail followed by scopolamine administration and measured after 5 mins by spectrophotometric analysis; assay type: functional, tissue-based; settings: dose 2.5-10 mg/kg, route po, time 35.0 min
Rattus norvegicus [15] = experiment: Reversal of amyloid beta (1 to 42 residues) induced cognitive impairment in Wistar rat assessed as reduction in escape latency time at 10 mg/kg, po pretreated with amyloid beta for 7 days followed by compound administration for 9 days and measured after 1 days by Morris water maze test; assay type: functional, organism-based; settings: time 10.0 day
Rattus norvegicus [16] = experiment: Reversal of amyloid beta (1 to 42 residues) induced cognitive impairment in Wistar rat assessed as increase in platform crossings at 10 mg/kg, po pretreated with amyloid beta for 7 days followed by compound administration for 9 days and measured after 1 days by Morris water maze test; assay type: functional, organism-based; settings: time 10.0 day
Rattus norvegicus [17] = experiment: Reversal of amyloid beta (1 to 42 residues) induced cognitive impairment in Wistar rat assessed as reduction in escape latency time at 10 mg/kg, po pretreated with amyloid beta for 7 days followed by compound administration for 9 days and measured after 5 days by Morris water maze test; assay type: functional, organism-based; settings: time 14.0 day
Rattus norvegicus [18] = experiment: (§1) Reversal of amyloid beta (1 to 42 residues) induced cognitive impairment in Wistar rat assessed as reduction in neural dispersion at DG region in hippocampus at 2.5 to 10 mg/kg, po pretreated with amyloid beta for 7 days followed by compound administration for 9 days and measured after 5 days by Nissl's staining based analysis; assay type: functional, organism-based; settings: dose 2.5-10 mg/kg, time 14.0 day
Rattus norvegicus [19] = experiment: as §1, with “appearance of pyknotic neuron bodies” for “neural dispersion at DG region”; assay type: functional, organism-based; settings: dose 2.5-10 mg/kg, time 14.0 day
Rattus norvegicus [20] = experiment: (§2) Reversal of amyloid beta (1 to 42 residues) induced cognitive impairment in Wistar rat assessed as decrease in alpha-synuclein protein level at 10 mg/kg, po pretreated with amyloid beta for 7 days followed by compound administration for 9 days and measured after 5 days by Western blot analysis; assay type: functional, organism-based; settings: time 14.0 day
Rattus norvegicus [21] = experiment: as §2, with “BACE-1” for “alpha-synuclein protein”, “level in CA1 region of hippocampus” for “level”, “immuno histochemical” for “Western blot”; assay type: functional, organism-based; settings: time 14.0 day
Rattus norvegicus [22] = experiment: as §2, with “amyloid” for “alpha-synuclein protein”, “level in DG region of hippocampus” for “level”, “immuno histochemical” for “Western blot”; assay type: functional, organism-based; settings: time 14.0 day
[23] = Toxicity in wildtype Oregon R-positive Drosophila assessed as reduction in eclosion at 100 to 200 uM pretreated for 5 days and measured for 15 days; settings: 480 h, dose 100-200 µM, time 20 day
[24] = Toxicity in wildtype Oregon R-positive Drosophila assessed as cell viability in gut at 50 uM by MTT assay relative to control; assay type: tissue-based; settings: read-out: Activity
Drosophila [25] = experiment: Neuroprotective activity in ey-GAL4>UAS-amyloid beta (1 to 42) induced cellular toxicity in Oregon R-positive Drosophila model assessed as rescue in eye phenotype at 10 uM by Stereo zoom microscopic imaging analysis relative to control; assay type: functional
Drosophila [26] = experiment: Neuroprotective activity in ey-GAL4>UAS-amyloid beta (1 to 42) induced cellular toxicity in Oregon R-positive Drosophila model assessed as rescue in eye phenotype at 20 uM by Stereo zoom microscopic imaging analysis relative to control; assay type: functional
Drosophila [27] = experiment: Neuroprotective activity against ey-GAL4>UAS-amyloid beta (1 to 42) induced cellular toxicity in Oregon R-positive Drosophila model assessed as rescue of ommatidial patterns in eye at 10 to 20 uM by scanning electron microscopic imaging analysis; assay type: functional, organism-based; settings: dose 10-20 µM
[28] = Tmax in male Wistar rat at 10 mg/kg, po measured after 72 hrs by HPLC analysis; assay type: ADME, organism-based; settings: in vivo
[29] = Cmax in male Wistar rat at 10 mg/kg, po measured after 72 hrs by HPLC analysis; assay type: ADME, organism-based; settings: in vivo
[30] = AUC (0 to 8 hrs) in male Wistar rat at 10 mg/kg, po measured after 72 hrs by HPLC analysis; assay type: ADME, organism-based; settings: in vivo
[31] = Total AUC in male Wistar rat at 10 mg/kg, po measured after 72 hrs by HPLC analysis; assay type: ADME, organism-based; settings: in vivo

COc1cc(NC(=O)Cn2nc(-c3ccccc3)c(-c3ccccc3)nc2=O)cc(OC)c1
IC50 (Acetylcholinesterase [1]): 486 nM | inhibition (Acetylcholinesterase [2]): Active | IC50 [3]: > 10000 nM | IC50 (Beta-secretase 1): 542 nM | Activity [4]: 253 nm | inhibition [5]: Active | inhibition [6]: Active | Activity [7]: Non-Toxic | Activity [8]: Non-Toxic | Activity [9]: Non-Toxic | Activity [10]: Non-Toxic | Activity [11]: Non-Toxic | Activity (Rattus norvegicus [12]): Dose-Dependent Effect | Activity (Hippocampus [13]): Active | Activity (Hippocampus [14]): Dose-Dependent Effect | Activity (Rattus norvegicus [15]): inactive | Activity (Rattus norvegicus [16]): inactive | Activity (Rattus norvegicus [17]): Active | Activity (Rattus norvegicus [18]): Active | Activity (Rattus norvegicus [19]): Active | Activity (Rattus norvegicus [20]): Active | Activity (Rattus norvegicus [21]): Active | Activity (Rattus norvegicus [22]): Active | Activity [23]: Toxic | viability at 50 µM [24]: 38% | Activity (Drosophila [25]): 21% | Activity (Drosophila [26]): 57% | Activity (Drosophila [27]): Active | Tmax [28]: 9 h | Cmax [29]: 355 ng/mL | AUC(0-t) at 72 h [30]: 1140 ng·h/mL | AUC at 72 h [31]: 1740 ng·h/mL
